Experimental data reported in BigSolDB 2.1.

Oc1ccccc1C=N[C@@H]1CCCC[C@H]1N=Cc1ccccc1O
solubility (mole fraction)
Details | 273.15 K | 278.15 K | 283.15 K | 288.15 K | 293.15 K | 298.15 K | 303.15 K | 308.15 K | 313.15 K
in 1,2-dichloroethane | 0.0862 | 0.0965 | 0.109 | 0.12 | 0.134 | 0.15 | 0.168 | 0.187 | 0.211
in THF | 0.135 | 0.144 | 0.157 | 0.169 | 0.186 | 0.201 | 0.221 | 0.242 | 0.263
in acetone | 0.0295 | 0.0351 | 0.0402 | 0.0462 | 0.053 | 0.0626 | 0.0732 | 0.0843 | 0.0956
in acetonitrile | 0.00397 | 0.00491 | 0.00616 | 0.0076 | 0.00961 | 0.0122 | 0.0159 | 0.02 | 0.025
in dichloromethane | 0.117 | 0.13 | 0.141 | 0.154 | 0.165 | 0.18 | 0.197 | 0.213 | 0.229
in ethanol | 0.000787 | 0.000988 | 0.00123 | 0.00153 | 0.00189 | 0.00236 | 0.0029 | 0.00358 | 0.00452
in ethyl acetate | 0.0241 | 0.0294 | 0.0347 | 0.0415 | 0.0489 | 0.0592 | 0.0691 | 0.0852 | 0.101
in methanol | 0.00051 | 0.000645 | 0.000817 | 0.00103 | 0.00128 | 0.00161 | 0.00198 | 0.00242 | 0.00298
in methyl acetate | 0.0199 | 0.0244 | 0.0292 | 0.0357 | 0.0436 | 0.0532 | 0.0648 | 0.0791 | 0.0961
in n-hexane | 0.000539 | 0.000713 | 0.000988 | 0.00131 | 0.00172 | 0.00223 | 0.00287 | 0.00376 | 0.00449
in n-propanol | 0.001 | 0.00125 | 0.00157 | 0.00196 | 0.00243 | 0.00303 | 0.00372 | 0.00452 | 0.00554
in toluene | 0.0411 | 0.0487 | 0.0566 | 0.0674 | 0.0802 | 0.0954 | 0.11 | 0.129 | 0.149
